pIC50: −log10 of the molar value.
Target: PARP7 (Homo sapiens (Human), UniProt Q7Z3E1)
Test: Enzymatic assay for inhibition of PARP7: TR-FRET displacement of biotinylated Probe A from the TIPARP active site
Format: binding
Conditions: Table A-1
In short: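 Compound dose-response series were incubated with TIPARP and biotinylated Probe A, with a final 30 min step at 25 °C. TR-FRET was read at 320 nm excitation, 615/665 nm emission and 90 μs delay, using the 665/615 ratio to measure complex formation. % inhibition was fitted with a floating or fixed (1) Hill coefficient.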

PARP7, sequence (Q7Z3E1 whole entry): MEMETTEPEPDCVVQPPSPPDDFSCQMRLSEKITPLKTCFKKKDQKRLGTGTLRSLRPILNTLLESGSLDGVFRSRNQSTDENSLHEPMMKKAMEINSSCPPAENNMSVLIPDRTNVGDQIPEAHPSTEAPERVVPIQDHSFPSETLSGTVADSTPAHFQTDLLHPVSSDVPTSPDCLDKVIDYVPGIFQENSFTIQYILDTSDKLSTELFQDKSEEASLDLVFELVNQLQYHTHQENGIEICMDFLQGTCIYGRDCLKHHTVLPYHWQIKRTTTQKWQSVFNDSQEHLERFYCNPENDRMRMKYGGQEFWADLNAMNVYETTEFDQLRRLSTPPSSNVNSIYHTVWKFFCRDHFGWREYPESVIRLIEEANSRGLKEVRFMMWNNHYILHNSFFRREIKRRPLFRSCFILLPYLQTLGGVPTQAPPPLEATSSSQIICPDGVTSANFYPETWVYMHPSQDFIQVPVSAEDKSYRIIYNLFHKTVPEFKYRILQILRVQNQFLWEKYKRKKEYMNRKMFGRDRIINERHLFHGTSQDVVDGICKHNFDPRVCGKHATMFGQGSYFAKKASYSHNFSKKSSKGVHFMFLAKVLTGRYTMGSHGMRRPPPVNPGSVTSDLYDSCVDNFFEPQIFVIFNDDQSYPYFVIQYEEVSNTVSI

N#Cc1ncc(N2CCN(C(=O)CCOC[C@@H]3CCCN3c3cn[nH]c(=O)c3C(F)(F)F)CC2)cn1 [Example 476, (S)-5-(4-(3-((1-(6-Oxo-5-(trifluoromethyl)-1,6-dihydropyridazin-4-yl)pyrrolidin-2-yl)methoxy)propanoyl)piperazin-1-yl)pyrimidine-2-carbonitrile]
pIC50: 6.00 to 7.00

N#Cc1ccc(N2CCN(C(=O)c3ccc(OCC4CCN(c5cn[nH]c(=O)c5C(F)(F)F)C4)cc3)CC2)nc1 (centres unmarked) [Example 477, 6-(4-(4-((1-(6-Oxo-5-(trifluoromethyl)-1,6-dihydropyridazin-4-yl)pyrrolidin-3-yl)methoxy)benzoyl)piperazin-1-yl)nicotinonitrile]
pIC50: > 7.00

N#Cc1ccc(N2CCN(C(=O)COCCOCC3CCN(c4cn[nH]c(=O)c4C(F)(F)F)C3)CC2)nc1 (centres unmarked) [Example 478, 6-(4-(2-(2-((1-(6-Oxo-5-(trifluoromethyl)-1,6-dihydropyridazin-4-yl)pyrrolidin-3-yl)methoxy)ethoxy)acetyl)piperazin-1-yl)nicotinonitrile]
pIC50: 6.00 to 7.00

N#Cc1ccc(N2CCN(C(=O)C34C5C6C3C3C4C5C63COC[C@@H]3CCCN3c3cn[nH]c(=O)c3C(F)(F)F)CC2)nc1 (stereo partly drawn) [Example 479, (S)-6-(4-(4-(((1-(6-Oxo-5-(trifluoromethyl)-1,6-dihydropyridazin-4-yl)pyrrolidin-2-yl)methoxy)methyl)cubane-1-carbonyl)piperazin-1-yl)nicotinonitrile]
pIC50: 6.00 to 7.00

Cc1c(N2CCC[C@H]2COCCC(=O)N2CCN(c3ccc(C#N)cn3)CC2)cn[nH]c1=O [Example 480, (S)-6-(4-(3-((1-(5-Methyl-6-oxo-1,6-dihydropyridazin-4-yl)pyrrolidin-2-yl)methoxy)propanoyl)piperazin-1-yl)nicotinonitrile]
pIC50: > 7.00

O=C(CCOC[C@@H]1CCCN1c1cn[nH]c(=O)c1C(F)(F)F)N1CCN(c2ccc(Cl)cn2)CC1 [Example 481, (S)-5-(2-((3-(4-(5-Chloropyridin-2-yl)piperazin-1-yl)-3-oxopropoxy)methyl)pyrrolidin-1-yl)-4-(trifluoromethyl)pyridazin-3(2H)-one]
pIC50: > 7.00

O=C(CCOC[C@@H]1CCCN1c1cn[nH]c(=O)c1C(F)(F)F)N1CCN(c2ncc(Cl)cn2)CC1 [Example 482, (S)-5-(2-((3-(4-(5-Chloropyrimidin-2-yl)piperazin-1-yl)-3-oxopropoxy)methyl)pyrrolidin-1-yl)-4-(trifluoromethyl)pyridazin-3(2H)-one]
pIC50: > 7.00

CS(=O)(=O)c1ccc(N2CCN(C(=O)CCOC[C@@H]3CCCN3c3cn[nH]c(=O)c3C(F)(F)F)CC2)nc1 [Example 483, (S)-5-(2-((3-(4-(5-(Methylsulfonyl)pyridin-2-yl)piperazin-1-yl)-3-oxopropoxy)methyl)pyrrolidin-1-yl)-4-(trifluoromethyl)pyridazin-3(2H)-one]
pIC50: > 7.00

CC1(C)C[C@@H](COCCC(=O)N2CCN(c3ccc(C#N)cn3)CC2)N(c2cn[nH]c(=O)c2C(F)(F)F)C1 [Example 484, (S)-6-(4-(3-((4,4-Dimethyl-1-(6-oxo-5-(trifluoromethyl)-1,6-dihydropyridazin-4-yl)pyrrolidin-2-yl)methoxy)propanoyl)piperazin-1-yl)nicotinonitrile]
pIC50: > 7.00

N#Cc1ccc(N2CCN(C(=O)CCOC[C@@H]3C[C@H](N)CN3c3cn[nH]c(=O)c3C(F)(F)F)CC2)nc1 [Example 485, 6-(4-(3-(((2S,4S)-4-Amino-1-(6-oxo-5-(trifluoromethyl)-1,6-dihydropyridazin-4-yl)pyrrolidin-2-yl)methoxy)propanoyl)piperazin-1-yl)nicotinonitrile]
pIC50: > 7.00

N#Cc1ccc(N2CCN(C(=O)CCOC[C@@H]3C[C@@H](N)CN3c3cn[nH]c(=O)c3C(F)(F)F)CC2)nc1 [Example 486, 6-(4-(3-(((2S,4R)-4-Amino-1-(6-oxo-5-(trifluoromethyl)-1,6-dihydropyridazin-4-yl)pyrrolidin-2-yl)methoxy)propanoyl)piperazin-1-yl)nicotinonitrile]
pIC50: > 7.00

N#Cc1ccc(N2CCN(C(=O)CCO[C@H]3C[C@@H](CN)N(c4cn[nH]c(=O)c4C(F)(F)F)C3)CC2)nc1 [Example 487, 6-(4-(3-(((3S,5S)-5-(Aminomethyl)-1-(6-oxo-5-(trifluoromethyl)-1,6-dihydropyridazin-4-yl)pyrrolidin-3-yl)oxy)propanoyl)piperazin-1-yl)nicotinonitrile]
pIC50: 6.00 to 7.00

N#Cc1ccc(N2CCN(C(=O)c3cccc(OCc4cccc5c4CN(c4cn[nH]c(=O)c4C(F)(F)F)C5)c3)CC2)nc1 [Example 488, 6-(4-(3-((2-(6-Oxo-5-(trifluoromethyl)-1,6-dihydropyridazin-4-yl)isoindolin-4-yl)methoxy)benzoyl)piperazin-1-yl)nicotinonitrile]
pIC50: > 7.00

CC(=O)N1CCC(COc2cc3c(cc2F)CN(c2cn[nH]c(=O)c2C(C)C)C3)CC1 [Example 489, 5-(5-((1-Acetylpiperidin-4-yl)methoxy)-6-fluoroisoindolin-2-yl)-4-isopropylpyridazin-3(2H)-one]
pIC50: ≤ 6.00

N#Cc1ccc(N2CCN(C(=O)COCCOc3cccc4c3CN(c3cn[nH]c(=O)c3C(F)(F)F)C4)CC2)nc1 [Example 490, 6-(4-(2-(2-((2-(6-Oxo-5-(trifluoromethyl)-1,6-dihydropyridazin-4-yl)isoindolin-4-yl)oxy)ethoxy)acetyl)piperazin-1-yl)nicotinonitrile]
pIC50: > 7.00

N#Cc1ccc(N2CCN(C(=O)CNCCOc3cccc4c3CN(c3cn[nH]c(=O)c3C(F)(F)F)C4)CC2)nc1 [Example 491, 6-(4-((2-((2-(6-Oxo-5-(trifluoromethyl)-1,6-dihydropyridazin-4-yl)isoindolin-4-yl)oxy)ethyl)glycyl)piperazin-1-yl)nicotinonitrile]
pIC50: > 7.00

N#Cc1ccc(N2CCN(C(=O)CCNCCOc3cccc4c3CN(c3cn[nH]c(=O)c3C(F)(F)F)C4)CC2)nc1 [Example 492, 6-(4-(3-((2-((2-(6-Oxo-5-(trifluoromethyl)-1,6-dihydropyridazin-4-yl)isoindolin-4-yl)oxy)ethyl)amino)propanoyl)piperazin-1-yl)nicotinonitrile]
pIC50: > 7.00

CN(CCOc1cccc2c1CN(c1cn[nH]c(=O)c1C(F)(F)F)C2)CCC(=O)N1CCN(c2ccc(C#N)cn2)CC1 [Example 493, 6-(4-(3-(Methyl(2-((2-(6-oxo-5-(trifluoromethyl)-1,6-dihydropyridazin-4-yl)isoindolin-4-yl)oxy)ethyl)amino)propanoyl)piperazin-1-yl)nicotinonitrile]
pIC50: > 7.00

N#Cc1ccc(N2CCN(C(=O)c3ccc(Oc4cccc5c4CN(c4cn[nH]c(=O)c4C(F)(F)F)C5)cc3)CC2)nc1 [Example 494, 6-(4-(4-((2-(6-Oxo-5-(trifluoromethyl)-1,6-dihydropyridazin-4-yl)isoindolin-4-yl)oxy)benzoyl)pipoerazin-1-yl)nicotinonitrile]
pIC50: > 7.00

N#Cc1ccc(N2CCN(C(=O)CCOCc3cccc4c3CN(c3cn[nH]c(=O)c3C(F)(F)F)C4)CC2)nc1 [Example 495, 6-(4-(3-((2-(6-Oxo-5-(trifluoromethyl)-1,6-dihydropyridazin-4-yl)isoindolin-4-yl)methoxy)propanoyl)piperazin-1-yl)nicotinonitrile]
pIC50: > 7.00
